Assay results taken from ChEMBL document CHEMBL3997763 (Medchemcomm, 2016).
The source made the active and inactive calls. The calls are words filed in the database; no cut-off is given here.

Key:
[1] = test system: Rattus norvegicus; experiment: Antihyperlipidemic activity in po dosed triton WR-1339 induced Charles Foster rat hyperlipidemia model assessed as increase in HDL-C level in serum administered simultaneously with triton WR-1339 after 18 hrs by enzymatic method relative to control; type: functional, organism-based
[2] = test system: Rattus norvegicus; experiment: Antihyperlipidemic activity in po dosed triton WR-1339 induced Charles Foster rat hyperlipidemia model assessed as inhibition of total cholesterol level in serum administered simultaneously with triton WR-1339 after 18 hrs by enzymatic method relative to control; type: functional, organism-based
[3] = target: Albumin (Bos taurus, UniProt P02769); experiment: Binding affinity to bovine serum albumin by absorption spectroscopic method; type: ADME; conditions: cattle, isolated protein
[4] = test system: Rattus norvegicus; experiment: Hypolipidemic activity in HFD-induced Charles Foster rat chronic hyperlipidemia model assessed as increase in fecal excretion of deoxycholic acid at 100 mg/kg administered via oral gavage for 30 days simultaneously with high fat diet by enzymatic method relative to HFD treated vehicle; type: functional
[5] = target: T1, 3-hydroxy-3-methylglutaryl-coenzyme A reductase (Homo sapiens) (UniProt P04035); experiment: Inhibition of human HMG-CoA reductase catalytic domain at 5 uM using HMG-CoA as substrate in presence of NADPH by colorimetric method relative to control
T1 sequence (whole entry): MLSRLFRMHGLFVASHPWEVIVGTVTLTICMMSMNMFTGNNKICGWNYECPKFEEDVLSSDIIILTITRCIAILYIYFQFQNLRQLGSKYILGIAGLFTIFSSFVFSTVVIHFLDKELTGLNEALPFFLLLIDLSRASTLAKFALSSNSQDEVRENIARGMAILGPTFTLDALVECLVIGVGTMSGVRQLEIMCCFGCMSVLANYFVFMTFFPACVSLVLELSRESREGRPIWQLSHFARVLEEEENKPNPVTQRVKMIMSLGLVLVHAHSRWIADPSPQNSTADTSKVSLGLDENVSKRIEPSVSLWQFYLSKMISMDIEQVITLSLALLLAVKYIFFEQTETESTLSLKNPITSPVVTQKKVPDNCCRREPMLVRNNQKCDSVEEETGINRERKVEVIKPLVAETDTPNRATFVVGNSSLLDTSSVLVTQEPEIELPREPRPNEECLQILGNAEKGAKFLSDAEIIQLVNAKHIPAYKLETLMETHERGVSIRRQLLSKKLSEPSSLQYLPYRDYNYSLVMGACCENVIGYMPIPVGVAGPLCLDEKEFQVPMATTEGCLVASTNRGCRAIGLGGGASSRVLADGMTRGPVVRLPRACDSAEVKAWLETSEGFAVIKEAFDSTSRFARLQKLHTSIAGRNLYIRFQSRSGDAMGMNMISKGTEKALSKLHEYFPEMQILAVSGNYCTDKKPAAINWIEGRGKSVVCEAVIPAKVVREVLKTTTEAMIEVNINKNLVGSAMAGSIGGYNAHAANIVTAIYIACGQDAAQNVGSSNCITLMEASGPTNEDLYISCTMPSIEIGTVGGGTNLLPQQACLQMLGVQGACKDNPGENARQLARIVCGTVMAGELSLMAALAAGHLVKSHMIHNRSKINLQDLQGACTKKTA

[6] = target: T1, 3-hydroxy-3-methylglutaryl-coenzyme A reductase (Homo sapiens); experiment: Inhibition of human HMG-CoA reductase catalytic domain at 100 uM using HMG-CoA as substrate in presence of NADPH by colorimetric method relative to control
[7] = Cmax in Sprague-Dawley rat at 100 mg/kg, po administered as single dose by LC-MS/MS analysis; type: ADME, organism-based; design: dose 100 mg/kg, route oral; conditions: in vivo
[8] = Apparent MRT in Sprague-Dawley rat at 100 mg/kg, po administered as single dose by LC-MS/MS analysis; type: ADME, organism-based; conditions: in vivo
[9] = test system: Liver; experiment: Intrinsic clearance in Sprague-Dawley rat liver microsomes at 10 uM in absence of NADPH after 5 to 90 mins by LC-MS/MS analysis; type: ADME, microsome
[10] = test system: Rattus norvegicus; experiment: Antihyperlipidemic activity in HFD-induced Charles Foster rat chronic hyperlipidemia model assessed as body weight at 100 mg/kg administered via oral gavage for 30 days simultaneously with high fat diet (reference value: 263.52 +/- 21.56 g); type: functional
[11] = AUC (0 to infinity) in Sprague-Dawley rat at 100 mg/kg, po administered as single dose by LC-MS/MS analysis; type: ADME, organism-based; design: dose 100 mg/kg, time infinity, route oral; conditions: in vivo
[12] = test system: Rattus norvegicus; experiment: Antihyperlipidemic activity in triton WR-1339 induced Charles Foster rat hyperlipidemia model assessed as inhibition of total cholesterol level in serum at 50 mg/kg, po administered simultaneously with triton WR-1339 after 18 hrs by enzymatic method relative to control; type: functional
[13] = test system: Rattus norvegicus; experiment: Hypolipidemic activity in HFD-induced Charles Foster rat chronic hyperlipidemia model assessed as reduction in serum total cholesterol level at 100 mg/kg administered via oral gavage for 30 days simultaneously with high fat diet by enzymatic method relative to HFD treated vehicle; type: functional; conditions: 720 h
[14] = test system: Rattus norvegicus; experiment: Hypolipidemic activity in HFD-induced Charles Foster rat assessed as increase in human I125-LDL binding to rat liver plasma membrane at 100 mg/kg administered as single dose via oral gavage for 30 days simultaneously with high fat diet by minigamma counting; type: functional, organism-based
[15] = test system: Rattus norvegicus; experiment: Antihyperlipidemic activity in triton WR-1339 induced Charles Foster rat hyperlipidemia model assessed as increase in HDL-C level in serum at 150 mg/kg, po administered simultaneously with triton WR-1339 after 18 hrs by enzymatic method relative to control; type: functional
[16] = target: T1, 3-hydroxy-3-methylglutaryl-coenzyme A reductase (Homo sapiens); experiment: Inhibition of human HMG-CoA reductase catalytic domain at 1 uM using HMG-CoA as substrate in presence of NADPH by colorimetric method relative to control
[17] = test system: Rattus norvegicus; experiment: Antihyperlipidemic activity in po dosed triton WR-1339 induced Charles Foster rat hyperlipidemia model assessed as inhibition of triglyceride level in serum administered simultaneously with triton WR-1339 after 18 hrs by enzymatic method relative to control; type: functional, organism-based
[18] = target: T1, 3-hydroxy-3-methylglutaryl-coenzyme A reductase (Homo sapiens); experiment: Inhibition of human HMG-CoA reductase catalytic domain at 50 uM using HMG-CoA as substrate in presence of NADPH by colorimetric method relative to control
[19] = test system: Rattus norvegicus; experiment: Antihyperlipidemic activity in triton WR-1339 induced Charles Foster rat hyperlipidemia model assessed as inhibition of phospholipid level in serum at 150 mg/kg, po administered simultaneously with triton WR-1339 after 18 hrs by enzymatic method relative to control; type: functional
[20] = Apparent oral clearance in Sprague-Dawley rat at 100 mg/kg administered as single dose by LC-MS/MS analysis; type: ADME, organism-based; conditions: in vivo
[21] = Tmax in Sprague-Dawley rat at 100 mg/kg, po administered as single dose by LC-MS/MS analysis; type: ADME, organism-based; conditions: in vivo
[22] = test system: Rattus norvegicus; experiment: Antihyperlipidemic activity in triton WR-1339 induced Charles Foster rat hyperlipidemia model assessed as inhibition of total cholesterol level in serum at 150 mg/kg, po administered simultaneously with triton WR-1339 after 18 hrs by enzymatic method relative to control; type: functional
[23] = test system: Rattus norvegicus; experiment: Hypolipidemic activity in HFD-induced Charles Foster rat assessed as reduction in serum VLDL-TG at 100 mg/kg administered as single dose via oral gavage for 30 days simultaneously with high fat diet; type: functional, organism-based
[24] = test system: Rattus norvegicus; experiment: Hypolipidemic activity in HFD-induced Charles Foster rat assessed as increase in LCAT activity at 100 mg/kg administered as single dose via oral gavage for 30 days simultaneously with high fat diet by photometric method; type: functional, organism-based

Chain of Albumin (P02769 whole entry): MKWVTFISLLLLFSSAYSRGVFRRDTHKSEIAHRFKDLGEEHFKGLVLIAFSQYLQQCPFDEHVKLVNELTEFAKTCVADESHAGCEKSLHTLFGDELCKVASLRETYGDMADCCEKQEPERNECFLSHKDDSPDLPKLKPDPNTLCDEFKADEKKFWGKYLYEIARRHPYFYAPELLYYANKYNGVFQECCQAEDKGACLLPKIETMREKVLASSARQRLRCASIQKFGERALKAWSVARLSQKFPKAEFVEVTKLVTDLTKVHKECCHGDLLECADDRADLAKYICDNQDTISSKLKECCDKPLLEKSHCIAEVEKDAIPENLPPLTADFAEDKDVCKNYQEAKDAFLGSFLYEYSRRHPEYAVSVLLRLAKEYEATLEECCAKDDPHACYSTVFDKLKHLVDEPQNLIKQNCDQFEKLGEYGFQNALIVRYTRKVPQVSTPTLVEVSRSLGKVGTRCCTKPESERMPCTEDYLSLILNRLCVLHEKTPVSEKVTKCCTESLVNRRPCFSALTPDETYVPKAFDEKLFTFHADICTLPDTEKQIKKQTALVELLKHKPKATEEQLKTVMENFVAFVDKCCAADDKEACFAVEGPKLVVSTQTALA

Activity [3]: Active
inhibition [5]: 32%
inhibition [6]: 81%
Cmax [7]: 79 ng/mL
MRT [8]: 4.46 h
CLH [9]: 5.8 µL/min/mg
AUC(0-inf) [11]: 417 ng·h/mL
inhibition [16]: 19%
inhibition [18]: 74%
CL/F [20]: 241 L/h/kg
Tmax [21]: 4 h
SMILES: COc1ccc(-c2cc3cc(C(c4c[nH]c5ccccc45)c4c[nH]c5ccccc45)cc(C(C)(C)C)c3oc2=O)cc1OC
Activity [1]: Dose-dependent effect
inhibition [2]: Dose-dependent effect
Activity [4]: 39%
Activity [10]: 228.19 g
inhibition in vivo at 50 mg/kg [12]: 20%
inhibition in vivo at 100 mg/kg [13]: 24%
Activity [14]: Active
Activity [15]: 25%
inhibition [17]: Dose-dependent effect
inhibition in vivo at 150 mg/kg [19]: 35%
inhibition in vivo at 150 mg/kg [22]: 33%
Activity [23]: Active
Activity [24]: Active
